The source of these data is patent US20120220665A1, “Inhibiting Neurotransmitter Reuptake” (MAYO FOUNDATION FOR MEDICAL EDUCATION AND RESEARCH, priority 2009, published 2012).

The target of test [1] is T1, human serotonin transporter (hSERT) (Homo sapiens, UniProt P31645).
T1 construct: expressed in transfected cells; host or cells: HEK-293, stably transfected; membranes
Put plainly: Human transporter radioligand binding, hSERT ([3H]citalopram, HEK-293 membranes). Conditions: HCl salts of test compounds; n ≥ 3, values marked b n = 1; read-out: Equilibrium Dissociation Constant (KD) for Transporter Binding (Geometric Mean; nM ± SEM) hSERT (S). As to the method:
(§1) HEK-293 cells expressing the recombinant hSERT or hDAT were incubated with Dulbecco's modified Eagles medium (MEM) supplemented with 0.1 mM nonessential amino acid solution for MEM, 5% v/v fetal bovine serum and […] penicillin/streptomycin solution. Cells expressing the hNET transporter were incubated with Dulbecco's modified Eagles medium supplemented with 10% v/v fetal bovine serum and 100 U/mL penicillin/streptomycin solution and 2 mM L-glutamine. All cells were grown until 70-80% confluent on 175 cm^2 flasks in a humidified 10% CO2/90% air environment at 37° C., with the selecting antibiotic Geneticin sulfate at […]. The cells were incubated in 10% CO2, 90% air at 37° C. and 100% humidity.
(§2) Cell membranes containing hSERT, hNET, or hDAT were prepared from the cell lines to assay ligand binding for each of the transporters. […] The washed cells were incubated for 5 minutes at 37° C. in 10 mL solution 1 containing 100 mM ethylene glycol-bis N,N,N′,N′-tetraacetic acid (EGTA). The cells were then scraped from the flask surface with a rubber spatula, placed into a centrifuge tube, and collected by centrifugation at 1000×g for 5 minutes at 4° C. The resulting supernatant was discarded, and the cell pellet was resuspended in 0.5 to1.0 mL of the appropriate binding buffer (described below). The resuspended cell pellet was homogenized using a Polytron for 10 seconds at setting 6. The resulting homogenate was centrifuged at about 36,000×g for 10 minutes at 4° C. The supernatant was discarded, and the pellet was resuspended in the same volume of the appropriate binding buffer and centrifuged again. The supernatant was discarded, and the final pellet containing cell membranes was resuspended in the appropriate binding buffer and stored at −80° C. until use.
(§3) Radioligand binding assays for the indicated transporters were performed as follows. To assess binding to the cloned hSERT, cells expressing hSERT were homogenized in 50 mM Tris-HCl with 120 mM NaCl and 5 mM KCl (pH 7.4). The binding reaction consisted of 10 μg cell membrane protein, 1.0 nM [^3H]citalopram (citalopram, [N-methyl-^3H], specific activity 79.0 Ci/mmol; PerkinElmer, Boston, Mass.), and varying concentrations of either unlabeled citalopram or the test compound. A reaction to determine non-specific binding consisted of 10 μg cell membrane protein, 0.5 nM [^3H]citalopram, and 1 μM final concentration of unlabeled citalopram. The reactions were incubated at 22° C. for 60 minutes. Following incubation, the reactions were terminated by rapid filtration through separate GF/B filter strips pretreated with 0.2% polyethylenimine in a 48-well Brandel cell harvester. The cell membrane-containing filter strips were then rinsed five times with ice-cold 0.9% NaCl. After rinsing, individual filters were cut from the strip and placed in a scintillation vial containing 6.5 mL of Redi-Safe (Beckman-Coulter, Fullerton, Calif.). Radioactivity was measured with a Beckman liquid scintillation counter (LS 6000TA).
(§4) Following the radioligand binding assays, the data were analyzed using the
(§5) The program was modified to calculate the Hill coefficient (nH). Data are presented as geometric mean±S.E.M. of at least three independent experiments. One-component models and two-component models were compared using the root mean square error of each fit and the F test.

Test [2] addresses T2, human norepinephrine transporter (hNET) (Homo sapiens, UniProt P23975).
T2 construct: expressed in transfected cells; host or cells: HEK-293, stably transfected; membranes
Put plainly: Human transporter radioligand binding, hNET ([3H]nisoxetine, HEK-293 membranes). Conditions: HCl salts of test compounds; n ≥ 3, values marked b n = 1; read-out: Equilibrium Dissociation Constant (KD) for Transporter Binding (Geometric Mean; nM ± SEM) hNET (N). As for the experimental part:
as §1, §2
(§6) To assess binding to the cloned hNET, cells expressing hNET were homogenized in 50 mM Tris-HCl with 300 mM NaCl and 5 mM KCl (pH 7.4). The binding reaction consisted of 5 μg cell membrane protein, 0.5 nM [^3H]nisoxetine (nisoxetine HCl, [N-methyl-^3H], specific activity 82.0 Ci/mmol; Amersham, Arlington Hts., Ill.), and varying concentrations of either unlabeled nisoxetine or the test compound. A reaction to determine non-specific binding consisted of 5 μg cell membrane protein, 0.5 nM [^3H]nisoxetine, and 1 μM final concentration of unlabeled nisoxetine. The reactions were incubated at 22° C. for 60 minutes. Following incubation, the reactions were terminated by rapid filtration through separate GF/B filter strips pretreated with 0.2% polyethylenimine in a 48-well Brandel cell harvester. The cell membrane-containing filter strips were then rinsed five times with ice-cold 0.9% NaCl. After rinsing, individual filters were cut from the strip and placed in a scintillation vial containing 6.5 mL of Redi-Safe (Beckman-Coulter, Fullerton, Calif.). Radioactivity was measured with a Beckman liquid scintillation counter (LS 6000TA).
as §4, §5

For test [3], the target named is T3, human dopamine transporter (hDAT) (Homo sapiens, UniProt Q01959).
T3 construct: expressed in transfected cells; host or cells: HEK-293, stably transfected; membranes
T3 sequence (Q01959 whole entry): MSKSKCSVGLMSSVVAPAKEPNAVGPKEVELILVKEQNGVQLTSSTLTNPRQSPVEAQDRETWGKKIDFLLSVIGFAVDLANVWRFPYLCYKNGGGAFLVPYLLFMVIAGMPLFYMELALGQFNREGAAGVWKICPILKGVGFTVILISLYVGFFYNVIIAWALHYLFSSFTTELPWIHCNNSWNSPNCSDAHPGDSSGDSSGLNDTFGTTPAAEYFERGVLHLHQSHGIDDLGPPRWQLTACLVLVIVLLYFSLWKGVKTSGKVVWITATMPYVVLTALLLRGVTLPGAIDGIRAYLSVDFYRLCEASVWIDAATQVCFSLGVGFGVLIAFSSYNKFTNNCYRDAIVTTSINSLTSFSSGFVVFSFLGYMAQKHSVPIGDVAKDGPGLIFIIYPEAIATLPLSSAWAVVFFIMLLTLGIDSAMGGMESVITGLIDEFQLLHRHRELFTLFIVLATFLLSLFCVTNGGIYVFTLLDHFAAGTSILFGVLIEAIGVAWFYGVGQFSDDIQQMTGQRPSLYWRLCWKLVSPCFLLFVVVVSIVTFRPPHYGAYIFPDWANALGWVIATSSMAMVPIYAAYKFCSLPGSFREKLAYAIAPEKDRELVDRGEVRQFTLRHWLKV
Put plainly: Human transporter radioligand binding, hDAT ([3H]WIN35428, HEK-293 membranes). The settings on record: HCl salts of test compounds; n ≥ 3, values marked b n = 1; read-out: Equilibrium Dissociation Constant (KD) for Transporter Binding (Geometric Mean; nM ± SEM) hDAT (D). As to the method:
as §1, §2
To assess binding to the cloned hDAT, cells expressing hDAT were homogenized in 50 mM Tris-HCl with 120 mM NaCl (pH 7.4). The binding reaction contained 15 μg cell membrane protein, 1 nM [^3H]WIN35428 (WIN35428, [N-methyl-^3H], specific activity 85.9 Ci/mmol; PerkinElmer, Boston, Mass.), and varying concentrations of either unlabeled WIN35428 or the test compound. A reaction to determine non-specific binding contained 15 μg cell membrane protein, 1 nM [^3H]WIN35428, and 10 μM final concentration of unlabeled WIN35428. The reactions were incubated at 22° C. for 1 hour. Following incubation, the reactions were terminated by rapid filtration through separate GF/B filter strips pretreated with 0.2% polyethylenimine in a 48-well Brandel cell harvester. The cell membrane-containing filter strips were then rinsed five times with ice-cold 0.9% NaCl. After rinsing, individual filters were cut from the strip and placed in a scintillation vial containing 6.5 mL of Redi-Safe (Beckman-Coulter, Fullerton, Calif.). Radioactivity was measured with a Beckman liquid scintillation counter (LS 6000TA).
as §4, §5

Test [4] concerns hSERT (S), hNET (N), hDAT (D). Put plainly: Comparison of binding potency across the three human transporters. Conditions: for Potency (rank order of transporter binding): S = hSERT, N = hNET, D = hDAT, order by KD; for Potency Range: highest KD / lowest KD among hSERT, hNET, hDAT. As for the experimental part:
as §1, §2, §3
as §6, with “NaCl.” for “NaCl. After rinsing, individual filters were cut from the strip and placed in a scintillation vial containing 6.5 mL of Redi-Safe (Beckman-Coulter, Fullerton, Calif.). Radioactivity was measured with a Beckman liquid scintillation counter (LS 6000TA).”

T2 sequence (P23975 whole entry): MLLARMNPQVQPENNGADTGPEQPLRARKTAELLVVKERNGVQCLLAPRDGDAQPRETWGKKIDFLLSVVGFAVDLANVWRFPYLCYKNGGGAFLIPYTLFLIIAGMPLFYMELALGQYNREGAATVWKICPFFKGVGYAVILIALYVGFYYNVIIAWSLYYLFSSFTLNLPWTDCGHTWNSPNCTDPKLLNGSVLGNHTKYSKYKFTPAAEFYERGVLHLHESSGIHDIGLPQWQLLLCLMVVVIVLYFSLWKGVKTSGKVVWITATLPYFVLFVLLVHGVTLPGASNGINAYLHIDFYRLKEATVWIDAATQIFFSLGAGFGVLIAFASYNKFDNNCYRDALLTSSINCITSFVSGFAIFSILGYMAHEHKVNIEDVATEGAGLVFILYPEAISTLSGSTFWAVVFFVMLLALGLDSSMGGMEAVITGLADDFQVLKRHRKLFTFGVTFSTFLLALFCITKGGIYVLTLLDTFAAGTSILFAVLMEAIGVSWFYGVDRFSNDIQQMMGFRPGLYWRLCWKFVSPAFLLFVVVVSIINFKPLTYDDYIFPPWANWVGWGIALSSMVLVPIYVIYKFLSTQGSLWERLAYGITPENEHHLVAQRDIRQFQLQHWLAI
T1 sequence (P31645 whole entry): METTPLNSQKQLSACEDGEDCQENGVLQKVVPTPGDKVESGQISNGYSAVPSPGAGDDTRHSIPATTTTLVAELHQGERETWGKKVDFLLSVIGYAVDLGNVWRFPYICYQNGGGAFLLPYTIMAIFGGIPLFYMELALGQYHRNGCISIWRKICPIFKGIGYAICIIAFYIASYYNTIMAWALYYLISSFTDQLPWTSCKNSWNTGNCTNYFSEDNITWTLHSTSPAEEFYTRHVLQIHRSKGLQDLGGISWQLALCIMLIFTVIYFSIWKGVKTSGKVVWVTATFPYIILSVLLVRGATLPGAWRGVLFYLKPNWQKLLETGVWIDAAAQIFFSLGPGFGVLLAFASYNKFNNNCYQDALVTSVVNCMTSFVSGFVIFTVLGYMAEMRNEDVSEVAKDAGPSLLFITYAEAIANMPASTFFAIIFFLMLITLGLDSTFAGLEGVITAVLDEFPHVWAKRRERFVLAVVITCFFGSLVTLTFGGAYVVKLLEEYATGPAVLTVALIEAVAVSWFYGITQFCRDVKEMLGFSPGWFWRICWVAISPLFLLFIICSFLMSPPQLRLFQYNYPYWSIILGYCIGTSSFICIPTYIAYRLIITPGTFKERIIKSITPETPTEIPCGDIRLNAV

As usually defined, the Kd is a measure of binding affinity in units of concentration. With `CNC[C@H](c1ccccc1)[C@H](O)c1ccc(F)cc1` [MCJ001-F—Ph—OH-SS/RR, (1S,2S)-1-(4-fluorophenyl)-3-(methylamino)-2-phenylpropan-1-ol], the Kd in test [1] was 1260 nM; in test [2], 514 nM; in test [3], 107 nM. Besides, the “Potency (rank order of transporter binding)” value in test [4] is “D > N > S”. Further, the “Potency Range” value in test [4] amounted to 12.
For the compound `CNC[C@@H](c1ccccc1)[C@@H](O)c1ccc2ccccc2c1` [MCJ001-NA-Ph—OH-SS/RR, (1S,1R/2S,2R)-3-(methylamino)-1-(naphthalen-2-yl)-2-phenylpropan-1-ol], the Kd in test [1] came out at 16 ± 2 nM; in test [2], 1390 nM; in test [3], 5800 ± 400 nM. Besides, in test [4], the “Potency (rank order of transporter binding)” value is “S > > N > D”. Further, the “Potency Range” value in test [4] came out at 370.
For `CNC[C@H](c1ccc2ccccc2c1)[C@H](O)c1ccc(F)cc1` [MCJ001-4F—Ph—OH-SS/RR, (1S,2S)-1-(4-fluorophenyl)-3-(methylamino)-2-(naphthalen-2-yl)propan-1-ol], the Kd was 33 ± 5 nM in test [1], 11 ± 1 nM in test [2] and 90 ± 10 nM in test [3]. Moreover, the “Potency (rank order of transporter binding)” value in test [4] is “N > S > D”. Also, the “Potency Range” value in test [4] is 8.
